Experiments:
C57BL/6 mice [1] = experiment: Delayed Type Hypersensitivity (DTH), OVA ear challenge; type: in vivo; conditions: Expt 3 (n = 7), adrenalectomized (ADX) mice; treatment i.p. at challenge (d 7); Dex […], TSH 2.0 mg/kg
thymus = conditions: mouse, in vivo
C57BL/6 mice [2] = experiment: LPS-induced mild endotoxemia mouse model, serum cytokines by ELISA; type: in vivo; conditions: treatment i.p. 1 hour prior, Dex […], TSH 2.0 mg/kg, Thyroxine 0.05 mg/kg; for TNFα (1 hr) +/− S.E.: serum 1 hour after 25 ug LPS i.p., PBS group 6990.8; for IL-6 (4 hr) +/− S.E.: serum 4 hours after 25 ug LPS i.p., PBS group 45.6
Experimental: The LPS-induced mild endotoxemia model is an in vivo model designed to mimic acute endotoxemia/sepsis by challenging mice with a low, non-lethal dose of bacterial endotoxin (lipopolysaccharide, LPS). Serum is collected at various timepoints (1-72 hours) after intraperitoneal LPS injection and analyzed for altered expression of a wide variety of pro- and anti-inflammatory cytokines and acute phase proteins that mediate the inflammatory response. The model provides a means to assess the potential anti-inflammatory effects of therapeutic candidates during a robust inflammatory response.
In this model, an initial experiment is run to determine the production of proinflammatory cytokines in response to an injection of LPS. For example, six-month old Balb/c (Charles River Laboratories, Wilmington, Mass.) female mice are injected with 25 μg LPS (Sigma) in sterile PBS intraperitoneally (i.p.). Serum samples are collected at 0, 1, 4, 8, 16, 24, 48 and 72 hours later, and are assayed for serum levels of inflammatory mediators, such as IL-1β, IL-6, TNFα, and IL-10. Commercially available ELISA kits (Biosource International, Camarillo, Calif.) can be used to deterime the serum levels. In this assay TNFα levels and IL-1β levels can be measured at 1 hour post-LPS injection, and IL-6, IL-10 and IL-10 can be measured at 4 hours post injection. From these inflammatory mediators, one or more is chosen as a representative biological marker(s) for the LPS model of mild endotoxemia.
Next, C57BL/6 mice (Charles River Laboratories; 5 mice/group) are treated i.p. with PBS, or the test compound in PBS 1 hour prior to LPS challenge. The mice are then challenged with 25 ug of LPS i.p. and are bled at 1 hour and 4 hours after LPS injection. The level of the representative biological marker(s) is analyzed by ELISA.
Thyroxine (0.05 mg/kg) and Dexamethasone (0.015 mg/kg) were run as negative and positive controls, respectively. […] This model can be optimized for dosage and choice of biological markers.

C[C@@H]1C[C@H]2[C@@H]3CCC4=CC(=O)C=C[C@]4(C)[C@@]3(F)[C@@H](O)C[C@]2(C)[C@@]1(O)C(=O)CO [Dex, Dexamethasone]
CHANGE IN EAR THICKNESS, LEFT EAR (PBS) (C57BL/6 mice [1]): 0.07 +/− 0.61 ×10^−3 inch
CHANGE IN EAR THICKNESS, RIGHT EAR (OVA) (C57BL/6 mice [1]): 3.71 +/− 0.64 ×10^−3 inch
thymic atrophy (in words) (thymus): obvious thymic atrophy
TNFα (1 hr) +/− S.E. (C57BL/6 mice [2]): 3798.4 ± 415.7 pg/mL
IL-6 (4 hr) +/− S.E. (C57BL/6 mice [2]): 35.2 ± 2.8 ng/mL

N[C@@H](Cc1cc(I)c(Oc2cc(I)c(O)c(I)c2)c(I)c1)C(=O)O [Thyroxine]
TNFα (1 hr) +/− S.E. (C57BL/6 mice [2]): 4289.5 ± 642.3 pg/mL
IL-6 (4 hr) +/− S.E. (C57BL/6 mice [2]): 37.1 ± 0.9 ng/mL

Source: US20070010446A1, “METHODS FOR TREATING INFLAMMATION USING THYROID STIMULATING HORMONE” (ZymoGenetics, Inc., priority 2003, published 2007)
